Experimental data: patent US10881648B2, “Combination therapy including an MDM2 inhibitor and one or more additional pharmaceutically active agents for the treatment of cancers” (AMGEN INC., priority 2013, dated 2021)

System: A204 cells
Assay: Two-way combination growth inhibition, CellTiter-Glo cell viability, 72 h, Loewe additivity analysis
Type: cell-based
Conditions: FIG. 1a, compound crossed with itself (A×A, 1×1)
Description: Cell lines were purchased from American Type Culture Collection (ATCC), German Collection of Microorganisms and Cell Cultures (DSMZ), and Japanese Collection of Research Bioresources (JCRB). Each line was cultured in its recommended growth medium. Cell line A375sq2 was made in accordance with the procedure set forth in J. Med. Chem. 2009, 52, 6189-6192, footnote 13.
For Examples 1 to 71, cells were seeded into 384-well cell culture plates at initial densities ranging from 300 to 7500 cells per well in a 30 μL volume, depending on the growth rate of the cell line, so that adherent cells would remain at subconfluent densities by the end of the 72-hour treatment period. […] CellTiter-Glo® Luminescent Cell Viability Assay (Promega; Madison, Wis.) was used to determine the number of viable cells based on quantitation of the amount of ATP present, an indicator of metabolically active cells. Luminescence was measured with an EnVision® Multilabel Reader (Perkin Elmer; Waltham, Mass.) for each cell line at time zero (V0) before the addition of compounds, as well as after 72 hours of compound treatment (T72). Growth inhibition (GI) was calculated according to the following equations, where V72 was luminescence of DMSO control at 72 hours and T72 was luminescence of the compound-treated sample: if T72≥V0, then GI=100×(1−((T72−V0)/(V72−V0))); if T72<V0, then […]. […]

CC(C)[C@@H](CS(=O)(=O)C(C)C)N1C(=O)[C@@](C)(CC(=O)O)C[C@H](c2cccc(Cl)c2)[C@H]1c1ccc(Cl)cc1 [Compound A, 2-((3R,5R,6S)-5-(3-chlorophenyl)-6-(4-chlorophenyl)-1-((S)-1-(isopropylsulfonyl)-3-methylbutan-2-yl)-3-methyl-2-oxopiperidin-3-yl)acetic acid]
synergy score for the self-cross combination: 0.621
